Assay results reported in patent US8530419B2, “Process for the synchronization of ovulation for timed breeding without heat detection” (priority 2003, dated 2013).

Tests used:
Assay type in all cases: in vivo, swine
[1] = system: ovariectomized estrogen primed gilt; test: Dose response study of LH release in ovariectomized estrogen primed gilt model (RIA); conditions: single injection of 50 mcg deslorelin in SAIB
Procedure: A dose response study was performed using deslorelin in SAIB in an ovariectomized estrogen primed gilt model (Barb, et at (1999) Proceed. Int'l. Symp. Control, Rel. Bioact. Mater., 26).

[2] = system: postpartum sows; test: Timed deslorelin injection 96 hours post-weaning, single timed insemination without estrus detection (Example 3)
Procedure: Approximately 170 postpartum sows were randomly divided into two equal groups comprised of controls and treated. Following weaning, the controls were detected for estrus and bred following the normal standard operating procedures for the farms on winch they resided. The treated sows received a 50 mcg dose of deslorelin in SAIB at 96 hours post-weaning and were bred with a single insemination 28+/−2 hours later with no regard to estrus detection. The sows were examined for pregnancy by ultrasound at 21 days and slaughtered around 28 days post breeding. The entire reproductive tract was removed and corpora lutea and embryos were counted.

[3] = system: postpartum sows; test: Litter size after deslorelin treatment at three farm sites (Example 4); conditions: Tables 3, 4 and 5; regardless of estrus detection
Text: Postpartum sows were randomly distributed into three different groups comprised of Controls, Treatment 1, and Treatment 2, with the exception of Site 3, which was divided into two groups, Control and Treatment 2. Control sows were detected for estrus following weaning, and bred following the normal standard operating procedures for the farms on which they resided. Treatment 1 sows were detected for estrus following weaning, and received a 50 mcg dose of deslorelin in the morning when standing and were bred by AI 4 hours later and again at 24+/−2 hours later. Treatment 2 sows received a 50 mcg dose of deslorelin in SAIB at 96 or 120 hours post-weaning and were bred with a single insemination 28+/−2 hours later with no regard to estrus detection.

CCNC(=O)[C@@H]1CCCN1C(=O)[C@H](CCCN=C(N)N)NC(=O)[C@H](CC(C)C)NC(=O)[C@@H](Cc1c[nH]c2ccccc12)NC(=O)[C@H](Cc1ccc(O)cc1)NC(=O)[C@H](CO)NC(=O)[C@H](Cc1c[nH]c2ccccc12)NC(=O)[C@H](Cc1cnc[nH]1)NC(=O)[C@@H]1CCC(=O)N1 [Deslorelin, deslorelin]
time at which LH returned to base level [1]: ≤ 18 h
LH peak ([1]; compared to Hansel et al. (1973)): about twice normal value
Pregnancy Rate ([2]; 50 mcg in SAIB at 96 hours post-weaning, single insemination 28+/-2 hours later, no estrus detection): 71%
Embryo Survival ([2]; 50 mcg in SAIB at 96 hours post-weaning, slaughtered around 28 days post breeding): 64%
pregnancy rates (in words) ([2]; single timed injection post-weaning, single timed insemination, no estrus detection): normal pregnancy rates were attained
litter sizes (in words) [3]: normal litter sizes
